Test results as given in patent US8551312B2, “Process to prepare amino acid-N, N-diacetic acid compounds” (Akzo Nobel N.V., priority 2006, dated 2013).

Legend:
Type in all cases: physicochemical
[1] = Conductivity of c. 40 wt % chelate solution (Knick Konductometer 703); conditions: c. 40 wt % chelate in water
Experimental: (§1) Commercial Dissolvine® GL-38, Dissolvine® H-40 ex Akzo Nobel Chemicals, and Trilon® M ex BASF were used as reference GLDA-Na4, HEDTA-Na3, and MGDA-Na3, respectively. The partially acidified chelates (40% in water) were prepared by addition of the corresponding chelate acid (in water) to the commercial product until the highest pH was obtained at which less than 0.1 wt % fully neutralized chelate is present. GLDA-H4 was prepared by electrodialysis and MGDA-Nax<3H3−x was made from Trilon® M by ion exchange. The desired pH was derived from the species distribution graphs that are based on the protonation constants. The resulting chelate solutions all have a chelate content (Fe-TSV) between 38.3 and 43 wt % of the salt actually present.
The conductivity was measured with a Knick Konductometer 703.

[2] = pH of the c. 40 wt % chelate solution by glass electrode; conditions: c. 40 wt % chelate solution as such
Experimental: as §1, with “constants.” for “constants. The resulting chelate solutions all have a chelate content (Fe-TSV) between 38.3 and 43 wt % of the salt actually present.”
The pH of the c. 40 wt % chelate solution as such was determined by a glass electrode.

[3] = Viscosity (Brookfield DV-II+ pro viscometer, S-18 spindle); conditions: c. 40 wt % chelate in water
Experimental: as §1
The viscosity was determined with a Brookfield DV-II+ pro viscometer, using a S-18 spindle. The temperature was maintained with a cryostat.

[4] = Corrosiveness against aluminium, weight loss of submerged plates; conditions: aluminium plates submerged in c. 40 wt % chelate solution at RT
Experimental: as §1
The corrosiveness against aluminium was determined using unspecified aluminium plates. The aluminium plates of 6×3×0.2 cm, supplied by the technical service, were cleaned with ethanol cleaner and dried and the weight of the plates was measured. Subsequently, the plates were completely submerged in the commercial or partially acidified chelate solution and kept at RT. In time, the plates were removed from the solutions, rinsed, dried by technical air, and weighted. The corrosiveness was expressed as the weight loss after a certain period of time. Furthermore, the aluminium plates and the chelate solution were visually inspected to evaluate the corrosion process.

Compound	Conductivity (mS/cm) at 20° C. [1]	pH [2]	Viscosity at 20° C. (Mpas) [3]	Viscosity at 40° C. (Mpas) [3]	Corrosiveness Aluminium (% weigth loss after 70 hr) [4]
CC(C(=O)[O-])N(CC(=O)[O-])CC(=O)[O-].[Na+].[Na+].[Na+] (stereo not drawn) [MGDA-Na3]	25.8 mS/cm	13.5	26 Mpas	11.0 Mpas	6 % weigth loss
O=C([O-])CN(CCO)CCN(CC(=O)[O-])CC(=O)[O-].[Na+].[Na+].[Na+] [HEDTA-Na3]	20.29 mS/cm	13.4	31 Mpas	14.7 Mpas	7 % weigth loss
tetrasodium glutamic acid-N,N-diacetate [GLDA-Na4]	20.9 mS/cm	13.5	51.5 Mpas	21.4 Mpas	7 % weigth loss
